Experimental data as given in PubChem BioAssay AID1890 (The Scripps Research Institute Molecular Screening Center, 2009).
Activity calls are given as the source filed them. No rule for the calls is given here.

Molecular target: Replicase polyprotein 1ab (Severe acute respiratory syndrome coronavirus) (UniProt P0C6X7)
Assay: SARS 3CLpro cleavage inhibition IC50 – biochemical, quenched FRET, dose response (AID 1890)
Details: purified 3CLpro, quenched FRET peptide cleavage

SMILES | IC50
Cc1ccc(C(=O)O)cc1NC(=S)NC(=O)c1ccc(COc2ccccc2)cc1 | > 59.6 µM (inactive)
Cc1ccc2[nH]c3c(c2c1)CN(C(=O)CN1c2ccc(F)cc2CCC1C)CC3 (stereo unspecified) | inactive
O=C(/C=C/c1c(F)cccc1Cl)Nc1cccnc1 | inactive
COc1ccc(C2C(O)C(c3c[nH]c4ccccc34)=NN2C(=O)CCl)cc1 (stereo unspecified) | 3.58 µM
CCc1nc(N2CCN(C(=O)CCl)CC2)c2c3c(sc2n1)CC(C)CC3 (stereo unspecified) | 4.23 µM
CCc1cccc(CC)c1N(COC)C(=O)Cn1nnc2ccccc21 | inactive
Cc1cc(=O)oc2cc(NC(=O)Cc3ccccc3[N+](=O)[O-])ccc12 | > 59.6 µM (inactive)
CC(=O)c1c(OC(=O)c2ccco2)c2ccccc2n1C | inactive
CC(=O)c1cc(-c2ccccc2)[nH]c1N1CCCC1 | 4.63 µM
O=C(O)c1[nH]c2ccccc2c1C(c1cc(Br)ccc1O)c1c(C(=O)O)[nH]c2ccccc12 | > 59.6 µM (inactive)
Cc1cccc2c1N(CCOc1ccccc1)C(=O)C2=O | inactive
O=C1C(=O)N(CC2COc3ccccc3O2)c2ccccc21 (stereo unspecified) | inactive
CC(=O)NC1C(=O)N(CCN2CCOCC2)c2ccc(F)cc21 (stereo unspecified) | 9.1 µM
COc1ccc2c(c1)C(=O)C(=O)N2CC1COc2ccccc2O1 (stereo unspecified) | 9.74 µM
O=C(/C=C/c1cccs1)Nc1scc(-c2ccccc2)c1C(=O)O | 5.22 µM
O=C(O)COc1ccc(Br)cc1C(c1c(C(=O)O)[nH]c2ccccc12)c1c(C(=O)O)[nH]c2ccccc12 | > 59.6 µM (inactive)
O=C1NC(=O)N(c2ccccc2F)C(=O)/C1=C/c1cn(CC(=O)N2CCOCC2)c2ccccc12 | inactive
O=c1[nH]c(=O)n(-c2ccccc2F)c(O)c1/C=C1\C=Nc2ccccc21 | 9.47 µM
O=C1C(=O)N(CCCc2ccccc2)c2ccccc21 | inactive
O=C(OCC(=O)N1c2ccccc2Sc2ccccc21)c1cccnc1 | inactive
COc1ccccc1OCCNC(=O)c1cc(=O)[nH]c2ccccc12 | 3.6 µM
COc1ccc(C(=O)Oc2cccnc2)cc1 | > 59.6 µM (inactive)
COC(=O)c1ccc(OC(=O)CN2C(=O)c3ccccc3C2=O)cc1 | > 59.6 µM (inactive)
Cc1ccc(C(=O)n2cnc3ccccc32)cc1C | inactive
O=Cc1cn(Cc2ccccc2)nc1-c1cccnc1 | 7.21 µM
O=C(Cn1nnc2ccccc21)c1ccc(Br)cc1 | 4.01 µM

SMILES | IC50
CCc1cc(=O)oc2cc(OC(=O)c3ccco3)ccc12 | 2.96 µM
NC(=O)CCn1c(C(=O)c2ccc(Cl)cc2)c2ccccc2[n+]1[O-] | 4.88 µM
O=C(Oc1ccc(Br)cc1C(=O)/C=C/c1ccccc1F)c1ccco1 | 7.12 µM
CCn1nc(-c2ccccc2)nc2c(=O)n(C)c(=O)nc1-2 | > 59.6 µM (inactive)
CC(C)C[C@H](NC(=O)c1nc[nH]c1C(=O)NCc1ccc(CNC(=O)OC(C)(C)C)cc1)C(=O)OC(C)(C)C | > 59.6 µM (inactive)
O=C(Oc1ccc(Cl)cc1N1C(=O)CCC1=O)c1ccco1 | inactive
Nc1ncc(Br)cc1S(=O)(=O)Nc1cc(C(F)(F)F)cc(C(F)(F)F)c1 | > 59.6 µM (inactive)
Cc1cc(NC(=O)COn2nnc3ccc(S(C)(=O)=O)cc32)ccc1Br | inactive
COc1ccc(N(C(=O)Cn2nnc3ccccc32)C2(C(=O)NC3CCCC3)CCCCC2)cc1 | 7.89 µM
Cc1cc(C)c(N(C(=O)Cn2nnc3ccccc32)C(C(=O)NC(C)(C)C)c2ccsc2)c(C)c1 (stereo unspecified) | 2.9 µM
CN(C)S(=O)(=O)c1cccc(NC(=O)CSc2cccc3cccnc23)c1 | inactive
O=C(Cc1ccc(Cl)c(Cl)c1)Nc1cccnc1 | inactive
Cc1ccc(C(=O)Oc2ccc3c(c2)ncn3C)cc1 | inactive
CCC(C)(C)NC(=O)C(c1ccc(O)cc1)N(C(=O)Cn1nnc2ccccc21)c1ccc(NC(C)=O)cc1 (stereo unspecified) | inactive
NC(=O)CCn1c(C(=O)c2cccc([N+](=O)[O-])c2)c2ccccc2[n+]1[O-] | inactive
O=C(Nc1ccc(OCC(F)(F)C(F)F)c(C(F)(F)F)c1)c1ccccc1O | > 59.6 µM (inactive)
CC(=O)NC1C(=O)N(CCN2CCOCC2)c2ccc(Br)cc21 (stereo unspecified) | 7.58 µM
Cc1ccc(C2CC(c3cccs3)=NN2C(=O)CCl)cc1 (stereo unspecified) | 4.19 µM
Cc1ccc(/C=C/C(=O)c2cc(Br)ccc2OC(=O)c2ccco2)cc1 | inactive
Cc1ccc(C(=O)c2c3ccc(C(F)(F)F)cc3[n+]([O-])n2CCC(N)=O)cc1 | inactive
Cc1cc(=O)oc2cc(OC(=O)c3ccco3)ccc12 | 3.34 µM
Cn1nc(-c2ccc(Cl)cc2)nc2c(=O)n(C)c(=O)nc1-2 | > 19.9 µM (inactive)
O=C(c1cc(=O)[nH]c2ccccc12)N1CCN(c2ccccc2)CC1 | 9.95 µM
COc1ccc2cc(C3(C)NC(=O)N(CC(=O)NCc4ccco4)C3=O)ccc2c1 (stereo unspecified) | inactive
O=C(CSc1ccccn1)Nc1nonc1[N+](=O)[O-] | 7.07 µM
CC(=O)n1cc(N(C(=O)CCl)c2ccc([N+](=O)[O-])cc2)c2ccccc21 | inactive

SMILES | IC50
COc1ccc(C(C(=O)NCC2CCCO2)N(C(=O)Cn2nnc3ccccc32)c2ccc(NC(C)=O)cc2)cc1 (stereo unspecified) | 9.35 µM
N#CCC(=O)N/N=C/c1c(-c2ccccc2)n(-c2ccccc2)c2ccccc12 | > 59.6 µM (inactive)
COc1ccccc1/C=C/C(=O)c1cc(Br)ccc1OC(=O)c1ccco1 | 8.94 µM
Cn1cnc2cc(NC(=O)c3ccc(Cl)cc3)ccc21 | inactive
O=C(/C=C/c1ccccc1Cl)Nc1cccnc1 | inactive
Cc1cc(NC(=O)COC(=O)C(Nc2ccc(C(F)(F)F)cc2Cl)C(C)C)no1 (stereo unspecified) | > 59.6 µM (inactive)
C[C@@]12C(=O)N(c3cccc(Br)c3)C(=O)N1[C@H](c1ccc(Cl)cc1)[C@@H]1C(=O)N(C3CCCCC3)C(=O)[C@@H]12 | > 59.6 µM (inactive)
CC(C)c1ccc(N(C(=O)c2ccco2)C(C(=O)NC2CCCC2)c2cccnc2)cc1 (stereo unspecified) | 5.93 µM
CC1(C)C2CC=C(/C=N/NC(=S)Nc3cccnc3)C1C2 (stereo unspecified) | > 59.6 µM (inactive)
Cc1cc(C)n(C(=O)c2ccc(C)c(Br)c2)n1 | inactive
COc1cc(/C=N\NC(=O)Cn2nnc3ccccc32)cc(OC)c1OC | 5.18 µM
NC(=O)CCn1c(C(=O)c2cc(Cl)c(N)c(Cl)c2)c2ccccc2[n+]1[O-] | 9.81 µM
CC(C)C12CN(C(=O)c3ccccc3[N+](=O)[O-])CC(C(C)C)(CN(C(=O)c3ccccc3[N+](=O)[O-])C1)C2=O | inactive
O=C(NCc1ccco1)C(c1ccco1)N(C(=O)Cn1nnc2ccccc21)c1ccc2c(c1)CCC2 (stereo unspecified) | inactive
Cc1ccc(-c2cc(NC(=O)c3ccccc3[N+](=O)[O-])n[nH]2)cc1 | inactive
COc1cc(C2CC(c3cccs3)=NN2C(=O)CCl)ccc1OC(F)F (stereo unspecified) | 2.8 µM
O=C(Oc1cccnc1)c1ccc(Cl)cc1 | 6.31 µM
Cc1cc(C)c(C)c(S(=O)(=O)N2CCN(C(=O)c3cc(=O)[nH]c4ccccc34)CC2)c1C | 4.83 µM
O=C(N/N=C\c1c(O)ccc2ccccc12)c1cncc(Br)c1 | inactive
CCC(C)(C)NC(=O)C(c1cccn1C)N(C(=O)Cn1nnc2ccccc21)c1ccc(NC(C)=O)cc1 (stereo unspecified) | 6.29 µM
CCC(C)c1ccc(N(C(=O)c2ccco2)C(C(=O)NC2CCCC2)c2cccnc2)cc1 (stereo unspecified) | 2.23 µM
COc1cccc(C(C(=O)NCc2ccco2)N(Cc2ccco2)C(=O)Cn2nnc3ccccc32)c1 (stereo unspecified) | 7.76 µM
COc1ccc(C2CC(c3cccs3)=NN2C(=O)CCl)cc1OC (stereo unspecified) | 2.3 µM
COc1cc2c(cc1OC)C(c1cc(Br)ccc1F)N(C(=O)CCl)CC2 (stereo unspecified) | 9.88 µM
Cc1ccc(C2=NN(C(=O)CCl)C(c3ccco3)C2)o1 (stereo unspecified) | 5.2 µM
Cc1ccc(C(=O)c2c3ccccc3[n+]([O-])n2CCC(N)=O)cc1 | 9.36 µM

SMILES | IC50
Cc1cc(C(=O)CCl)c(C)n1-c1cccc([N+](=O)[O-])c1 | 4.59 µM
O=C(/C=C/c1ccc(Cl)c([N+](=O)[O-])c1)NCc1cccnc1 | inactive
CCN(CC)C(=O)Cn1cc(/C=C2\C(=O)NC(=O)N(c3ccccc3F)C2=O)c2ccccc21 | inactive
O=C(c1cc(=O)[nH]c2ccccc12)N1CCN(c2cccc(C(F)(F)F)c2)CC1 | 5.1 µM
Cc1nnc(SC(=O)N2c3ccccc3Sc3ccccc32)s1 | inactive
O=C(O)c1ccc2ncsc2c1 | inactive
CC1CCC2C(=O)N(c3cc(Cl)ccc3OC(=O)c3ccco3)C(=O)C2C1 (stereo unspecified) | 5.39 µM
Cc1sc(NC(=O)CCl)c(C(=O)c2ccccc2)c1C | inactive
O=C1C(=O)N(C/C=C/c2ccccc2)c2ccccc21 | inactive
O=C(Nc1ccccc1)NN(C(=O)CCl)c1ccccc1 | 9.64 µM
CC(=O)Nc1ccc(N(C(=O)Cn2nnc3ccccc32)C(C(=O)NC2CCCC2)c2ccc(O)c(O)c2)cc1 (stereo unspecified) | inactive
CCOc1ccc2c(c1)C(=O)C(=O)N2CC1COc2ccccc2O1 (stereo unspecified) | 4.29 µM
COc1ccc(C(=O)n2c(SC)nc3cc4c(cc32)OCCO4)cc1 | 1.08 µM
CC(C)c1ccc(N(C(=O)c2csnn2)C(C(=O)NC2CCCC2)c2cccnc2)cc1 (stereo unspecified) | inactive
O=C(CCl)N(CCc1ccccc1)CCc1ccccc1 | inactive
COc1cccc(C(C(=O)NCC2CCCO2)N(C(=O)Cn2nnc3ccccc32)c2ccc(NC(C)=O)cc2)c1 (stereo unspecified) | inactive
CCCCOc1ccc(C(=O)Oc2cccnc2)cc1 | > 59.6 µM (inactive)
COc1cccc(C(C(=O)Nc2ccc(F)cc2)N(C(=O)Cn2nnc3ccccc32)C2CC2)c1 (stereo unspecified) | inactive
COc1cccc(/C=N/NC(=S)Nc2cccnc2)c1 | inactive
Cc1cccc(N2CCN(C(=O)c3cc(=O)[nH]c4ccccc34)CC2)c1C | 6.66 µM
CCc1ccc2c(c1)C(NC(C)=O)C(=O)N2CCN1CCOCC1 (stereo unspecified) | 6.56 µM
O=C(Cn1nnc2ccccc21)c1ccc(Cl)cc1 | 9.91 µM
COc1ccc(N(Cc2cc(=O)[nH]c3ccccc23)C(=O)CCl)cc1 | inactive
